# Like-named read-outs stand apart in the source and are kept apart here.
# What was measured:
# [1] = system: Bacillus subtilis ATCC6633; experiment: Paper disc assay, Bacillus subtilis; assay type: cell-based; conditions: S
# Description: (§1) (2) Antibacterial activities against other bacteria were determined with Micrococcus luteus ATCC9341 (1), Bacillus subtilis […] (s), Escherichia coli NIHJ (c), Xanthomonas campestris KB88 (X), Mucor racemosus IFO 4581 (Mu) and Candida albicans ATCC 64548 (Ca).
# (§2) Bacillus subtilis ATCC6633 was incubated in Davis synthetic medium and then the seed broth was combined with the medium in the ratio of 1:99 to obtain a test plate. Micrococcus luteus ATCC9341, Escherichia coli NIHJ and Xanthomonas campestris KB88 were respectively incubated in Nutrient agar medium and inoculated at 0.2%, 0.5% and 1.0%. Mucor racemosus IFO 4581 and Candida albicans ATCC 64548 were respectively incubated in GY agar medium and then inoculated at 0.3% and 0.2%.
# (§3) A paper disc (ADVANTEC, Φ:6 mm) was impregnated with a solution of test compound and dried under reduced pressure. The paper disc was put on the test plate and it was incubated for 24 hours at 37° C. After incubation, the inhibition zone diameter and clarity (A to E) were determined.
# [2] = system: Micrococcus luteus ATCC9341; experiment: Paper disc assay, Micrococcus luteus; assay type: cell-based; conditions: column 1
# Description: as §1, §2, §3
# [3] = system: Xanthomonas campestris KB88; experiment: Paper disc assay, Xanthomonas campestris; assay type: cell-based; conditions: X
# Description: as §1, §2, §3
# [4] = system: Mannheimia haemolytica, 3 isolates; experiment: MIC against Mannheimia haemolytica isolates; assay type: cell-based; conditions: Mannheimia haemolytica
# Description: (§4) Minimal inhibitory concentrations (MICs) were determined against the most prevalent pathogens in cattle (Mannheimia Haemolytica, 3 isolates) and swine (A. pleuropneumoniae, 6 isolates). In addition the activity of several compounds was tested against two bacterial species, i.e. Mannheimia haemolytica and Actinobacillus pleuropneumoniae, which are considered as the most important bacterial respiratory pathogens in cattle and swine, respectively.
# [5] = system: Actinobacillus pleuropneumoniae, 6 isolates; experiment: MIC against Actinobacillus pleuropneumoniae isolates; assay type: cell-based
# Description: as §4
# [6] = system: M. hemolytica KB345 (Tilmicosin-sensitivity strain); experiment: Paper disc assay, M. hemolytica KB345; assay type: cell-based, Mannhemia hemolytica; conditions: Table 4
# Description: (1) Antibacterial activities against Mannheimia and Pasteurella were determined by the following steps: • 1) M. hemolytica KB345 (Tilmicosin-sensitivity strain) and M. hemolytica KB346 (Tilmicosin-low sensitivity strain) were provided. KB 345 strain stored at −80° C. was seeded to BHIB agar medium (10 mL) by using Microbank beads (Pro-Lab) and platinum nail. After statically incubating the KB 345 strain for 24 hours at 37° C., it was seeded to maintaining slant BHIB agar medium (7 mL) by using platinum loop, further statically incubated for 24 hours at 37° C. to obtain slant. One platinum loop of KB 345 strain stored at the slant was inoculated into a large test tube charged with BHIB liquid medium (10 mL) and then incubated for 24 hours at 37° C. with shaking. • 2) A paper disc (ADVANTEC, Φ:6 mm) was impregnated with a solution of test compound and dried under reduced pressure. • 3) To a melted BHIB agar medium was inoculated 1% of the broth obtained from step 1) above to prepare a test plate. After the medium set, the paper disc prepared in step 2) above was put on the plate and it was incubated at 37° C. • 4) After one day, the inhibition zone diameter and clarity (A to E) were determined. For KB346 strain, the same procedures were repeated.
# [7] = 3ISOLATES, 3 Mannheimia haemolytica isolates, broth dilution method, read-out: Range of minimum inhibitory concentrations (MIC)
# [8] = 6ISOLATES, 6 Actinobacillus pleuropneumoniae isolates, broth dilution method, read-out: Range of minimum inhibitory concentrations (MIC)
compound,measurement,setting,value
"CC[C@H]1OC(=O)C[C@@H](O)[C@H](C)[C@@H](O[C@@H]2OC(C)[C@@H](O)C(N(C)C)C2O)[C@@H](CCn2cc(CCCCCl)nn2)C[C@@H](C)C(=O)/C=C/C(C)=C/[C@@H]1CO[C@@H]1OC(C)[C@@H](O)C(OC)C1OC (some centres unmarked) [YT19, 20-(4-(4-chlorobutyl)-1H-1,2,3-triazol-1-yl)-20-deoxodesmycosin]",Inhibition zone,[1]; 0.1 mg/6 mm disc,7 mm
same,Inhibition zone,[1]; 1 mg/6 mm disc,10.5 mm
same,Inhibition zone,[1]; 10 mg/6 mm disc,15 mm
same,Inhibition zone,[2]; 0.1 mg/6 mm disc,13 mm
same,Inhibition zone,[2]; 1 mg/6 mm disc,19 mm
same,Inhibition zone,[2]; 10 mg/6 mm disc,26 mm
same,Inhibition zone,[3]; 0.1 mg/6 mm disc,7 mm
same,Inhibition zone,[3]; 1 mg/6 mm disc,14.5 mm
same,Inhibition zone,[3]; 10 mg/6 mm disc,23 mm
CC[C@H]1OC(=O)C[C@@H](O)[C@H](C)[C@@H](O[C@@H]2OC(C)[C@@H](O)C(N(C)C)C2O)[C@@H](CCNCCn2cc(-c3ccsc3)nn2)C[C@@H](C)C(=O)/C=C/C(C)=C/[C@@H]1CO (some centres unmarked) [YT717],MIC,[4]; [7],2 to 8 µg/mL
same,MIC,[5]; [8],4 µg/mL
CC[C@H]1OC(=O)C[C@@H](O)[C@H](C)[C@@H](O[C@@H]2OC(C)[C@@H](O)C(N(C)C)C2O)[C@@H](CCNCCn2cc(-c3cc(C)c(C)cc3C)nn2)C[C@@H](C)C(=O)/C=C/C(C)=C/[C@@H]1CO (some centres unmarked) [YT723],MIC,[4]; [7],2 to 8 µg/mL
same,MIC,[5]; [8],8 µg/mL
CC[C@H]1OC(=O)C[C@@H](O)[C@H](C)[C@@H](O[C@@H]2OC(C)[C@@H](O)C(N(C)C)C2O)[C@@H](CCN(CCn2cc(-c3cccnc3)nn2)Cc2ccccc2)C[C@@H](C)C(=O)/C=C/C(C)=C/[C@@H]1CO (some centres unmarked) [YT664],MIC,[4]; [7],4 to 8 µg/mL
same,MIC,[5]; [8],2 to 8 µg/mL
CC[C@H]1OC(=O)C[C@@H](O)[C@H](C)[C@@H](O[C@@H]2OC(C)[C@@H](O)C(N(C)C)C2O)[C@@H](CCN(CCn2cc(-c3ccsc3)nn2)Cc2ccc(I)cc2)C[C@@H](C)C(=O)/C=C/C(C)=C/[C@@H]1CO (some centres unmarked) [YT705],MIC,[4]; [7],8 µg/mL
same,MIC,[5]; [8],8 µg/mL
CC[C@H]1OC(=O)C[C@@H](O)[C@H](C)[C@@H](O[C@@H]2OC(C)[C@@H](O)C(N(C)C)C2O)[C@@H](CCN(C)Cc2cn(-c3ccc4ncccc4c3)nn2)C[C@@H](C)C(=O)/C=C/C(C)=C/[C@@H]1CO (some centres unmarked) [YT710],MIC,[4]; [7],2 to 4 µg/mL
same,MIC,[5]; [8],4 µg/mL
CC[C@H]1OC(=O)C[C@@H](O)[C@H](C)[C@@H](O[C@@H]2OC(C)[C@@H](O)C(N(C)C)C2O)[C@@H](CCN(CCn2cc(-c3ccsc3)nn2)Cc2ccccc2)C[C@@H](C)C(=O)/C=C/C(C)=C/[C@@H]1CO (some centres unmarked) [YT674],MIC,[4]; [7],2 to 4 µg/mL
same,MIC,[5]; [8],2 µg/mL
"CC[C@H]1OC(=O)C[C@@H](O)[C@H](C)[C@@H](O[C@@H]2OC(C)[C@@H](O)C(N(C)C)C2O)[C@@H](CCn2cc(-c3ccc(N(C)C)cc3)nn2)C[C@@H](C)C(=O)/C=C/C(C)=C/[C@@H]1CO[C@@H]1OC(C)[C@@H](O)C(OC)C1OC (some centres unmarked) [YT29, 20-(4-(4-dimethylaminophenyl)-1H-1,2,3-triazol-1-yl)-20-deoxodesmycosin]",Inhibition zone,[1]; 0.1 mg/6 mm disc,7 mm
same,Inhibition zone,[1]; 1 mg/6 mm disc,10 mm
same,Inhibition zone,[1]; 10 mg/6 mm disc,15 mm
same,Inhibition zone,[2]; 0.1 mg/6 mm disc,11 mm
same,Inhibition zone,[2]; 1 mg/6 mm disc,19.5 mm
same,Inhibition zone,[2]; 10 mg/6 mm disc,25.5 mm
same,Inhibition zone,[3]; 0.1 mg/6 mm disc,7 mm
same,Inhibition zone,[3]; 1 mg/6 mm disc,15 mm
same,Inhibition zone,[3]; 10 mg/6 mm disc,24 mm
CC[C@H]1OC(=O)C[C@@H](O)[C@H](C)[C@@H](O[C@@H]2OC(C)[C@@H](O)C(N(C)C)C2O)[C@@H](CCn2cc(-c3ccsc3)nn2)C[C@@H](C)C(=O)/C=C/C(C)=C/[C@@H]1CO (some centres unmarked) [YT726],MIC,[4]; [7],8 µg/mL
same,MIC,[5]; [8],8 µg/mL
CC[C@H]1OC(=O)C[C@@H](O)[C@H](C)[C@@H](O[C@@H]2OC(C)[C@@H](O)C(N(C)C)C2O)[C@@H](CCNCCn2cc(-c3ccccc3[N+](=O)[O-])nn2)C[C@@H](C)C(=O)/C=C/C(C)=C/[C@@H]1CO (some centres unmarked) [YT718],MIC,[4]; [7],2 to 8 µg/mL
same,MIC,[5]; [8],8 µg/mL
"CC[C@H]1OC(=O)C[C@@H](O)[C@H](C)[C@@H](O[C@@H]2OC(C)[C@@H](O)C(N(C)C)C2O)[C@@H](CCn2cc(-c3ccccc3)nn2)C[C@@H](C)C(=O)/C=C/C(C)=C/[C@@H]1CO[C@@H]1OC(C)[C@@H](O)C(OC)C1OC (some centres unmarked) [YT13, 20-(4-phenyl-1H-1,2,3-triazol-1-yl)-20-deoxodesmycosin]",Inhibition zone,[1]; 0.1 mg/6 mm disc,9.5 mm
same,Inhibition zone,[1]; 1 mg/6 mm disc,12 mm
same,Inhibition zone,[1]; 10 mg/6 mm disc,15.5 mm
same,Inhibition zone,[2]; 0.1 mg/6 mm disc,15 mm
same,Inhibition zone,[2]; 1 mg/6 mm disc,21.5 mm
same,Inhibition zone,[2]; 10 mg/6 mm disc,27.5 mm
same,Inhibition zone,[3]; 0.1 mg/6 mm disc,8 mm
same,Inhibition zone,[3]; 1 mg/6 mm disc,17 mm
same,Inhibition zone,[3]; 10 mg/6 mm disc,23.5 mm
"CC[C@H]1OC(=O)C[C@@H](O)[C@H](C)[C@@H](O[C@@H]2OC(C)[C@@H](O)C(N(C)C)C2O)[C@@H](CC=O)C[C@@H](C)C(=O)/C=C/C(C)=C/[C@@H]1Cn1cc(-c2ccc(-c3ccccc3)cc2)nn1 (some centres unmarked) [YT104, 23-(4-biphenyl-1H-1,2,3-triazol-1-yl)-23-Deoxy-5-O-mycaminosyltylonolide]",MIC,"[4]; M. haemolytica isolate 1, read-out: MICs",8 µg/mL
same,MIC,"[4]; M. haemolytica isolate 2, read-out: MICs",4 µg/mL
same,MIC,"[4]; M. haemolytica isolate 3, read-out: MICs",8 µg/mL
same,MIC,"[5]; Actinobacillus pleuropneumoniae, pleuropneumoniae isolate 1, read-out: MICs",> 16 µg/mL
same,MICs,[5]; pleuropneumoniae isolate 2,>16 µg/mL
same,MICs,[5]; pleuropneumoniae isolate 3,>16 µg/mL
same,MICs,[5]; pleuropneumoniae isolate 4,>16 µg/mL
same,MICs,[5]; pleuropneumoniae isolate 5,>16 µg/mL
same,MICs,[5]; pleuropneumoniae isolate 6,>16 µg/mL
CC[C@H]1OC(=O)C[C@@H](O)[C@H](C)[C@@H](O[C@@H]2OC(C)[C@@H](O)C(N(C)C)C2O)[C@@H](CCN(C)Cc2cn(CCNCc3ccccc3)nn2)C[C@@H](C)C(=O)/C=C/C(C)=C/[C@@H]1CO (some centres unmarked) [YT653],MIC,[4]; [7],1 to 8 µg/mL
same,MIC,[5]; [8],4 to 8 µg/mL
CC[C@H]1OC(=O)C[C@@H](O)[C@H](C)[C@@H](O[C@@H]2OC(C)[C@@H](O)C(N(C)C)C2O)[C@@H](CCN(CCn2cc(-c3cccc(N)c3)nn2)Cc2ccccc2)C[C@@H](C)C(=O)/C=C/C(C)=C/[C@@H]1CO (some centres unmarked) [YT657],MIC,[4]; [7],2 to 4 µg/mL
same,MIC,[5]; [8],2 µg/mL
CCC1OC(=O)CC(O)C(C)C(OC2OC(C)C(O)C(N(C)C)C2O)C(CCn2cc(-c3ccccc3)nn2)CC(C)C(=O)C=CC(C)=CC1CI (centres unmarked) [YT113],Inhibition zone,[6]; 10 mg/6 mm disk,11.0 mm
same,Inhibition zone,[6]; 30 mg/6 mm disk,18.0 mm
same,Inhibition zone,[6]; 100 mg/6 mm disk,19.5 mm
CC[C@H]1OC(=O)C[C@@H](O)[C@H](C)[C@@H](O[C@@H]2OC(C)[C@@H](O)C(N(C)C)C2O)[C@@H](CCNCCn2cc(-c3ccccc3)nn2)C[C@@H](C)C(=O)/C=C/C(C)=C/[C@@H]1CO (some centres unmarked) [YT617],MIC,[4]; [7],2 to 8 µg/mL
same,MIC,[5]; [8],4 µg/mL
CC[C@H]1OC(=O)C[C@@H](O)[C@H](C)[C@@H](O[C@@H]2OC(C)[C@@H](O)C(N(C)C)C2O)[C@@H](CCN(CCn2cc(-c3ccccc3)nn2)Cc2ccc(I)cc2)C[C@@H](C)C(=O)/C=C/C(C)=C/[C@@H]1CO (some centres unmarked) [YT700],MIC,[4]; [7],4 to 8 µg/mL
same,MIC,[5]; [8],8 µg/mL
CC[C@H]1OC(=O)C[C@@H](O)[C@H](C)[C@@H](O[C@@H]2OC(C)[C@@H](O)C(N(C)C)C2O)[C@@H](CCn2cc(-c3cnc4ccccc4c3)nn2)C[C@@H](C)C(=O)/C=C/C(C)=C/[C@@H]1CO (some centres unmarked) [YT733],MIC,[4]; [7],2 to 4 µg/mL
same,MIC,[5]; [8],4 µg/mL
"CCC1OC(=O)CC(O)C(C)C(OC2OC(C)C(O)C(N(C)C)C2O)C(CCn2cc(-c3ccccc3)nn2)CC(C)C(=O)C=CC(C)=CC1CN=[N+]=[N-] (centres unmarked) [YT114, 20-(4-phenyl-1H-1,2,3-triazol-1-yl)-20-deoxo-23-azido-23-deoxy-5-O-mycaminosyltylonolide]",Inhibition zone,[6]; 3 mg/6 mm disk,11.5 mm
same,Inhibition zone,[6]; 10 mg/6 mm disk,17.5 mm
same,Inhibition zone,[6]; 30 mg/6 mm disk,21.0 mm
same,Inhibition zone,[6]; 100 mg/6 mm disk,21.0 mm
CC[C@H]1OC(=O)C[C@@H](O)[C@H](C)[C@@H](O[C@@H]2OC(C)[C@@H](O)C(N(C)C)C2O)[C@@H](CCn2cc(-c3ccc4ccccc4n3)nn2)C[C@@H](C)C(=O)/C=C/C(C)=C/[C@@H]1CO (some centres unmarked) [YT734],MIC,[4]; [7],2 to 4 µg/mL
same,MIC,[5]; [8],2 to 4 µg/mL

# — patent publication US9771389B2, “Tylosin derivatives and method for preparation thereof” (BAYER ANIMAL HEALTH GMBH, priority 2013, dated 2017)
